Data: patent publication US20140274782A1, “AFFINITY REAGENTS AND METHODS FOR DETECTION, PURIFICATION, AND PROTEOMIC ANALYSIS OF METHYLATED PROTEINS” (The Board of Trustees of the Leland Stanford Junior …, priority 2013, published 2014)

Tests used:
3×MBT domain of L3MBTL1 [1] = test: SILAC proteomic pull-down 3×MBT vs 3×MBTD355N from 293T nuclear extract, LC-MS/MS; format: binding, human; conditions: SILAC ratio, 293T nuclear extract pull-down; * = protein identified in only one labeling experiment
Protocol: Protein pull-downs were performed as described above using 600 μg of nuclear extract prepared with isotopic labels as indicated. After eluting with glutathione, 3×MBT domain was removed by dialysis into high salt and rebinding to GSH-sepharose. Bound proteins were separated by SDS-PAGE and analyzed by in-gel tryptic digest followed by LC-MS/MS. Peptides were identified using MaxQuant version 1.2.2.5 (Cox and Mann (2008) Nat. Biotechnol. 26, 1367-1372) and candidate methylated peptides were verified by manual inspection.
For stable isotope labeling by amino acids in cell culture (SILAC) experiments HEK 293T cells were grown for at least six doublings in DMEM for SILAC supplemented with 10% dialyzed fetal bovine serum (FBS), 230 mg/L L-proline and either 100 mg/L each of L-lysine and L-arginine (“light” medium), D4-L-lysine and ^13C6-L-arginine (“medium” media), or ^13C6^15N2-L-lysine and ^13C6^15N4-L-arginine (Thermo Scientific). Heavy methyl labeling used DMEM without L-Methionine or L-Cysteine supplemented with D3^13C-L-Methionine (Sigma), L-Cysteine (Sigma) and 10% dialyzed FBS.
600 μg of nuclear extract was incubated overnight rotating at 4° C. with 20 μl packed 3×MBT or 3×MBTD355N beads in a total volume of 250 μL with binding buffer. Supernatant was removed and saved for use as a loading control. Beads were washed 4×5 minutes with 0.5 mL binding buffer. Protein was eluted by incubating in 20 μL elution buffer (10 mg/mL glutathione in 50 mM Tris pH 8.0) rotating at 4° C. for four hours. Elutions from 3×MBT and 3×MBTD355N were combined and dialyzed overnight at 4° C. against 10,000× volume of dissociation buffer (50 mM Tris pH 7.5, 750 mM NaCl) in a 0.1 mL Slide-A-Lyzer MINI Dialysis Device with 3.5K molecular weight cutoff (Thermo Scientific). 80 μL of GSH-Sepharose was prepared by washing briefly three times with 0.5 mL binding buffer. Dialyzed proteins were added to the GSH-Sepharose and incubated 4 hours rotating at 4° C. to deplete the GST-fusion domains. Supernatant was transferred to a fresh 1.5 mL tube. Proteins were separated by SDS-PAGE on a 10% polyacrylamide gel and stained using SilverQuest Silver Staining Kit (Life Technologies). Lanes were excised, residual 3×MBT band was removed, and gel was diced into 0.5 mm cubes. Gel pieces were destained and processed by in-gel digestion (Carlson et al. (2011) Science Signaling 4) with sequencing grade trypsin (Promega) and the peptide sample was dried completely in a vacuum centrifuge. To prepare a loading control, 2 μL each of light and heavy nuclear extract were combined, 6 μL of 8M urea was added, proteins were denatured by adding 2 μL of 100 mM dithiothreitol in digest buffer (50 mM ammonium bicarbonate) and heating to 60° C. for 1 hour, cysteine was alkylated by adding 2.2 μL 100 mg/mL iodoacetamide in digest buffer and incubating 1 hour at room temperature in darkness, and proteins were digested by adding 80 μL trypsin (Promega) at 12.5 ng/μL in digest buffer and incubating overnight at room temperature in darkness. Digestion was stopped by adding 10 μL of 10% formic acid.
Each experiment consisted of two sets of pull-downs: “forward” labeling with 3×MBT incubated with light nuclear extract and 3×MBTD355N with medium extract, and a second “reverse” labeling experiment with the label conditions swapped. Proteins were included in the results if they were quantified in both labeling directions. To determine reproducibility the entire experiment including the label swap was duplicated using independent protein preparations and a mass spectrometer at another institution.
For 3×MBT pull-down experiment #1 the gel lane was processed and peptides were loaded off-line onto a first dimension trap column (Waters Xbridge, C18, 10 μm particle size, 100 Å pore size, 5 cm packing length, 150 μm column i.d.). […]

3×MBT domain of L3MBTL1 [2] = test: Triple SILAC pull-down, 3xMBT/3xMBTD355N ratio (cytoplasmic, nuclear and chromatin fractions of 293T cells); format: binding, human; conditions: SILAC ratio; for 3xMBT/D355N UNC Heavy / 3xMBT/D355N UNC Light: pull-down 3xMBT vs 3xMBTD355N; for 3xMBT/D355N UNC Heavy: experiment with UNC0638 in heavy SILAC media; for 3xMBT/D355N UNC Light: experiment with UNC0638 in light SILAC media; for Protein Ratios 3xMBT/D355N: pull-down by 3xMBT vs 3xMBTD355N, 293T cells;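 on all read-outs here: proteins quantified with MaxQuant, requiring at least two unique peptides and quantification in both label directions, normalized to the mean of proteins from a digested loading control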

SSRP1: protein with methylated lysine identified in 3xMBT pull-down
Protein Ratio 3xMBT/D355N (3×MBT domain of L3MBTL1 [1]): 14.6
3xMBT/D355N UNC Heavy (3×MBT domain of L3MBTL1 [2]): 4.47 log base 2
3xMBT/D355N UNC Light (3×MBT domain of L3MBTL1 [2]): 4.11 log base 2

RBM25: protein with methylated lysine identified in 3xMBT pull-down
Protein Ratio 3xMBT/D355N (3×MBT domain of L3MBTL1 [1]): 7.7
3xMBT/D355N UNC Heavy (3×MBT domain of L3MBTL1 [2]): 2.41 log base 2
3xMBT/D355N UNC Light (3×MBT domain of L3MBTL1 [2]): 2.28 log base 2

MSH6: protein with methylated lysine identified in 3xMBT pull-down
Protein Ratio 3xMBT/D355N (3×MBT domain of L3MBTL1 [1]): 1.2
3xMBT/D355N UNC Heavy (3×MBT domain of L3MBTL1 [2]): 2.51 log base 2
3xMBT/D355N UNC Light (3×MBT domain of L3MBTL1 [2]): 2.41 log base 2

DNA ligase 1
Protein Ratio 3xMBT/D355N (3×MBT domain of L3MBTL1 [1]): 10.7
3xMBT/D355N UNC Heavy (3×MBT domain of L3MBTL1 [2]): 3.18 log base 2
3xMBT/D355N UNC Light (3×MBT domain of L3MBTL1 [2]): 1.96 log base 2
Protein Ratios 3xMBT/D355N (3×MBT domain of L3MBTL1 [2]): 5.9

MCM7: protein with methylated lysine identified in 3xMBT pull-down
Protein Ratio 3xMBT/D355N (3×MBT domain of L3MBTL1 [1]): 6.7
3xMBT/D355N UNC Heavy (3×MBT domain of L3MBTL1 [2]): 2.23 log base 2
3xMBT/D355N UNC Light (3×MBT domain of L3MBTL1 [2]): 2.52 log base 2

Protein Wiz
Protein Ratio 3xMBT/D355N (3×MBT domain of L3MBTL1 [1]): 5.3
3xMBT/D355N UNC Heavy (3×MBT domain of L3MBTL1 [2]): 0.93 log base 2
3xMBT/D355N UNC Light (3×MBT domain of L3MBTL1 [2]): 2.02 log base 2
Protein Ratios 3xMBT/D355N (3×MBT domain of L3MBTL1 [2]): 2.7
